From patent publication US7342089B2, “Cyclic peptides for treatment for cachexia” (Palatin Technologies, Inc., priority 2002, dated 2008)
Positions of bridges follow the written chain, without caps; N, C: chain ends. Non-standard residues stand in square brackets, D forms with d. Residues, ends and D or L forms follow the SMILES beside them. 2Nal = N[C@@H](Cc1ccc2ccccc2c1)C(=O)O; d2Nal = N[C@H](Cc1ccc2ccccc2c1)C(=O)O; Nle = CCCC[C@H](N)C(=O)O

Columns and labels:
rats = experiment: ICV feeding studies; type: in vivo, rat; settings: lowest value of multiple tests, parentheses = decrease
Experimental: (§1) Change in food intake and body weight is evaluated for selected peptides. Rats with indwelling intracerebroventricular cannulas (ICV rats) are obtained from Hilltop Lab Animals, Inc. (Scottdale, Pa.). Animals are individually housed in conventional plexiglass hanging cages and maintained on a controlled 12 hour on/off light cycle. Water and powdered (LabDiet, 5P00 Prolab RMH 3000) or pelleted (Harlan Teklad 2018 18% Protein Rodent Diet) food is provided ad libitum. For 1 week before treatment, 24-hour food intake and body weight change is recorded to assess a baseline for the group during vehicle treatment. The rats are dosed ICV with vehicle or selected cyclic peptides (0.3-3 nmol). The changes in body weight and food intake for the 24 hour period after dosing are determined. The changes in body weight and food intake for the 48 hour and 72 hour periods after dosing are also measured to determine reversal of changes in body weight and food intake effects back to baseline levels.
A series of ICV feeding studies were conducted on rats. All animals were dosed on the first day with saline ICV, and given a pre-weighed food bowl with food weight recorded at 2 and 21 hours post-ICV injection. On day 2, animals were randomized based on the 21 hour food consumption, with animals eliminated due to low food consumption or food spills. […] Food weights were again recorded at 2, 4, 21 and 24 hours post-icv injection. In most instances, multiple different tests were conducted which each group containing between 8 and 12 members; the lowest value is shown below. Values are shown as percent increase (decrease) in aggregate food intake. “ND” means no test was conducted at that dose level.

[1] = target: T1, MC1-R (B-16 mouse melanoma cells) (Mus musculus, UniProt Q01727); experiment: Competitive inhibition binding assay using [I125]-NDP-α-MSH, MC1-R; settings: B-16 mouse melanoma cell membranes
T1 sequence (Q01727 whole entry): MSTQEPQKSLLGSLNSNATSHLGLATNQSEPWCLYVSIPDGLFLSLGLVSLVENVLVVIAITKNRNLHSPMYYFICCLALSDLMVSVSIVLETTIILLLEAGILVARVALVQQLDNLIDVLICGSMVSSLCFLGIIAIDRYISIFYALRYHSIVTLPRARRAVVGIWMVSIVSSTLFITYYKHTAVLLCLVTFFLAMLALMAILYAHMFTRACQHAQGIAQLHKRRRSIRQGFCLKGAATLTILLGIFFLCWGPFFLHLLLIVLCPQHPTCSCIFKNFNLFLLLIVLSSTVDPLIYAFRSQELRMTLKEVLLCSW
Experimental: Each assay is conducted in triplicate.

[2] = target: T1, MC1-R (B-16 mouse melanoma cells); experiment: cAMP assay for agonist/antagonist status, MC1-R; type: cell-based; settings: for EC50: read-out: EC50 as to MC1-R
Experimental: Cells are incubated with the test peptides in the presence or absence of α-MSH for 1 hour at 37° C. cAMP levels in the cell lysates are measured using the EIA kit (Amersham). Data analysis and EC50 values are determined using nonlinear regression analysis with Prism Graph-Pad software.
The agonist/antagonist status with respect to MC1-R, MC4-R and MC5-R of certain peptides of the invention is determined. Antagonistic activity is determined by measuring the inhibition of α-MSH-induced or NDP-α-MSH-induced cAMP levels following exposure to the peptides as in the preceding descriptions.

hMC3-R (HEK-293 cells) = target: T2, hMC3-R (HEK-293 cells) (Homo sapiens, UniProt P41968); experiment: cAMP assay for agonist/antagonist status and functional antagonism, MC3-R; type: cell-based; settings: for Kb: read-out: pA2 value as to MC3-R (converted)
T2 construct: expressed in transfected cells; host or cells: HEK-293
T2 sequence (P41968 whole entry): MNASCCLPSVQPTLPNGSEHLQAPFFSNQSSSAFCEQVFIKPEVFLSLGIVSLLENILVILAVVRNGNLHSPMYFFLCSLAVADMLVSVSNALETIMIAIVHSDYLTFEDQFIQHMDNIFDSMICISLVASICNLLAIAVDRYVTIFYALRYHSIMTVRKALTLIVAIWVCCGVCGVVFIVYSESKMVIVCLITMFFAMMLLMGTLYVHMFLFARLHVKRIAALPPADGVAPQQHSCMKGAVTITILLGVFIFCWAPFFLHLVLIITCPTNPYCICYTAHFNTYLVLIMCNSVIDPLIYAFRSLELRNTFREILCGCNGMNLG

hMC4-R = target: T3, hMC4-R (Homo sapiens, UniProt P32245); experiment: Competitive inhibition binding assay using [I125]-NDP-α-MSH, hMC4-R; settings: HEK-293 membranes, read-out: Ki MC4-R
T3 construct: expressed in transfected cells; host or cells: HEK-293
T3 sequence (P32245 whole entry): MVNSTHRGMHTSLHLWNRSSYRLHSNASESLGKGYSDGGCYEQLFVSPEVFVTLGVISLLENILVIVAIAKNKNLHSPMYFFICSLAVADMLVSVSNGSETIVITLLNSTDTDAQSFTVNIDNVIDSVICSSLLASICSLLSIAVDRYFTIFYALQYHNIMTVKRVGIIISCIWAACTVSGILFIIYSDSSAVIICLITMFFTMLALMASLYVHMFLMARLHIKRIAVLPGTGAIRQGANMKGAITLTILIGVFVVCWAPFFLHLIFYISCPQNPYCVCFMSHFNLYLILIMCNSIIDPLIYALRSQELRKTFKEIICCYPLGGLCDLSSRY

hMC3-R = target: T4, hMC3-R (Homo sapiens, UniProt P41968); experiment: Competitive inhibition binding assay using [I125]-NDP-α-MSH, hMC3-R; settings: HEK-293 membranes, read-out: Ki MC3-R
T4 construct: expressed in transfected cells; host or cells: HEK-293
T4 sequence (P41968 whole entry): as the sequence (P41968 whole entry) above

hMC5-R = target: T5, hMC5-R (Homo sapiens, UniProt P33032); experiment: Competitive inhibition binding assay using [I125]-NDP-α-MSH, hMC5-R; settings: HEK-293 membranes, read-out: Ki MC5-R
T5 construct: expressed in transfected cells; host or cells: HEK-293
T5 sequence (P33032 whole entry): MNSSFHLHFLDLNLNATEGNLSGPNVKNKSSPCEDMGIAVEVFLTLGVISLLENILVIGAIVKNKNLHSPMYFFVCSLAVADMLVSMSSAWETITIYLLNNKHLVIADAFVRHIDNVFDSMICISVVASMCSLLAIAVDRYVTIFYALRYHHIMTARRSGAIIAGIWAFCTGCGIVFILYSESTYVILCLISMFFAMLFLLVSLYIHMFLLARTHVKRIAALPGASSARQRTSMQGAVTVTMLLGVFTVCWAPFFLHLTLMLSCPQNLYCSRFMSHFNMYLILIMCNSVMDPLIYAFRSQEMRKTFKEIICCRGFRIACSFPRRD

hMC4-R (HEK-293 cells) = target: T6, hMC4-R (HEK-293 cells) (Homo sapiens, UniProt P32245); experiment: cAMP assay for agonist/antagonist status and functional antagonism, MC4-R; type: cell-based; settings: for agonist/antagonist status as to MC4-R: cAMP assay; for Kb: functional antagonism, Schild's analysis vs NDP-α-MSH, read-out: pA2 value as to MC4-R (converted)
T6 construct: expressed in transfected cells; host or cells: HEK-293
T6 sequence (P32245 whole entry): as the sequence (P32245 whole entry) above

male Sprague-Dawley rats = experiment: IV food intake and body weight change; type: in vivo, rat; settings: 1 mg/kg IV, 24 hour period (FIG. 1)
Experimental: as §1, with “peptides. Male Sprague-Dawley rats” for “peptides. Rats with indwelling intracerebroventricular cannulas (ICV rats)”, “from Taconic (Germantown, N.Y.).” for “from Hilltop Lab Animals, Inc. (Scottdale, Pa.).”, “dosed IV or IP” for “dosed ICV”, “selected” for “selected cyclic”, “peptides (0.5-3 mg/kg).” for “peptides (0.3-3 nmol).”, “to determined” for “to determine”
Briefly, male Sprague-Dawley rats (300-350 g) were individually housed in shoe box cages with a 12 hr light/dark period. Food intake and body weights were monitored for 24 hours prior to the start of the study. Rats were randomized by body weight and then dosed IV just before lights-off with the compound of Example 12 or the same volume of vehicle. A pre-weighed amount of food was provided and food intake was determined at 2, 4, 20 and 24 hours. […]

SMILES	Ki [1] [nM]	agonist/antagonist status as to MC1-R [2]	EC50 [2] [nM]	agonist/antagonist status as to MC3-R (hMC3-R (HEK-293 cells); cAMP assay)	Ki (hMC4-R) [nM]	Ki (hMC3-R) [nM]	Ki (hMC5-R) [nM]	agonist/antagonist status as to MC4-R (hMC4-R (HEK-293 cells))	Kb (hMC4-R (HEK-293 cells)) [nM]	EC50 (hMC3-R (HEK-293 cells); cAMP assay, read-out: EC50 as to MC3-R) [nM]	Kb (hMC3-R (HEK-293 cells)) [nM]	Percent Increase (Decrease) In Aggregate Food Intake After ICV Administration of Peptide Compared to Vehicle (Saline) (rats; 1 nmol) [%]	Percent Increase (Decrease) In Aggregate Food Intake After ICV Administration of Peptide Compared to Vehicle (Saline) (rats; 0.3 nmol) [%]	cumulative food intake compared to vehicle (male Sprague-Dawley rats)	agonist/antagonist status at MC1-R ([2]; peptide at 1 μM concentration)
CCCC[C@H](NC(C)=O)C(=O)N[C@H]1CC(=O)NCCCC[C@@H](C(=O)O)NC(=O)[C@H](Cc2ccc3ccccc3c2)NC(=O)[C@H](CCCNC(=N)N)NC(=O)[C@@H](Cc2ccc3ccccc3c2)NC(=O)[C@H](Cc2c[nH]cn2)NC1=O [Example 12, Ac-Nle-cyclo(-Asp-His-D-Nal 2-Arg-Nal 2-Lys)-OH] (Ac-[Nle]DH[d2Nal]R[2Nal]K-OH; lactam 2-7)	0.2	partial agonist	5	antagonist	0.02	0.3	0.2	antagonist	7.59	–	–	48	36	increase in food intake	–
CCCC[C@H](NC(C)=O)C(=O)N[C@H]1CC(=O)NCCCC[C@@H](C(=O)O)NC(=O)[C@H](Cc2ccc3ccccc3c2)NC(=O)[C@H](CCCNC(=N)N)NC(=O)[C@@H](Cc2ccc3ccccc3c2)NC(=O)[C@H](Cc2c[nH]c3ccccc23)NC1=O [Example 13, Ac-Nle-cyclo(-Asp-Trp-D-Nal 2-Arg-Nal 2-Lys)-OH] (Ac-[Nle]DW[d2Nal]R[2Nal]K-OH; lactam 2-7)	119	partial agonist	–	–	–	–	–	–	–	–	–	–	–	–	–
CC(=O)N[C@H]1CC(=O)NCCCC[C@@H](C(=O)O)NC(=O)[C@H](Cc2ccc3ccccc3c2)NC(=O)[C@H](CCCNC(=N)N)NC(=O)[C@@H](Cc2ccc3ccccc3c2)NC(=O)[C@H](Cc2c[nH]c3ccccc23)NC1=O [Example 16, Ac-cyclo(-Asp-Trp-D-Nal 2-Arg-Nal 2-Lys)-OH] (Ac-DW[d2Nal]R[2Nal]K-OH; lactam 1-6)	1100	partial agonist	> 1000	antagonist	0.1	10	17	antagonist	3.55	–	–	4	0	–	–
CCNC(=O)[C@@H]1CCCCNC(=O)C[C@H](NC(C)=O)C(=O)N[C@@H](Cc2c[nH]c3ccccc23)C(=O)N[C@H](Cc2ccc3ccccc3c2)C(=O)N[C@@H](CCCNC(=N)N)C(=O)N[C@@H](Cc2ccc3ccccc3c2)C(=O)N1 [Example 17, Ac-cyclo(-Asp-Trp-D-Nal 2-Arg-Nal 2-Lys)-NH—CH2—CH3] (Ac-DW[d2Nal]R[2Nal]K-NHEt; lactam 1-6)	194	partial agonist	> 1000	antagonist	0.03	1	3	antagonist	1.74	–	9.12	20	32	–	–
CC(=O)N[C@H]1CC(=O)NCCCC[C@@H](C(=O)N(C)C)NC(=O)[C@H](Cc2ccc3ccccc3c2)NC(=O)[C@H](CCCNC(=N)N)NC(=O)[C@@H](Cc2ccc3ccccc3c2)NC(=O)[C@H](Cc2c[nH]c3ccccc23)NC1=O [Example 18, Ac-cyclo(-Asp-Trp-D-Nal 2-Arg-Nal 2-Lys)-N(CH3)2] (Ac-DW[d2Nal]R[2Nal]K-NMe2; lactam 1-6)	107	inactive	–	antagonist	0.03	1	4	antagonist	2.04	–	51.3	24	24	–	–
CNC(=O)[C@@H]1CCCCNC(=O)C[C@H](NC(C)=O)C(=O)N[C@@H](Cc2c[nH]c3ccccc23)C(=O)N[C@H](Cc2ccc3ccccc3c2)C(=O)N[C@@H](CCCNC(=N)N)C(=O)N[C@@H](Cc2ccc3ccccc3c2)C(=O)N1 [Example 19, Ac-cyclo(-Asp-Trp-D-Nal 2-Arg-Nal 2-Lys)-NH—CH3] (Ac-DW[d2Nal]R[2Nal]K-NHMe; lactam 1-6)	643	–	–	antagonist	0.06	3	6	antagonist	1.26	–	8.51	32	28	–	inactive

The next lines start with results.

Ki [1] [nM]	agonist/antagonist status as to MC1-R [2]	EC50 [2] [nM]	agonist/antagonist status as to MC3-R (hMC3-R (HEK-293 cells); cAMP assay)	Ki (hMC4-R) [nM]	Ki (hMC3-R) [nM]	Ki (hMC5-R) [nM]	agonist/antagonist status as to MC4-R (hMC4-R (HEK-293 cells))	Kb (hMC4-R (HEK-293 cells)) [nM]	EC50 (hMC3-R (HEK-293 cells); cAMP assay, read-out: EC50 as to MC3-R) [nM]	Kb (hMC3-R (HEK-293 cells)) [nM]	SMILES	Percent Increase (Decrease) In Aggregate Food Intake After ICV Administration of Peptide Compared to Vehicle (Saline) (rats; 1 nmol) [%]	Percent Increase (Decrease) In Aggregate Food Intake After ICV Administration of Peptide Compared to Vehicle (Saline) (rats; 0.3 nmol) [%]	cumulative food intake compared to vehicle (male Sprague-Dawley rats)	agonist/antagonist status at MC1-R ([2]; peptide at 1 μM concentration)
3	partial agonist	57	–	–	–	–	–	–	–	–	CCCC[C@H](NC(C)=O)C(=O)N[C@H]1CC(=O)NCCCC[C@@H](C(=O)O)NC(=O)[C@H](Cc2c[nH]c3ccccc23)NC(=O)[C@H](CCCNC(=N)N)NC(=O)[C@@H](Cc2ccc3ccccc3c2)NC(=O)[C@H](Cc2c[nH]cn2)NC1=O [Example 11, Ac-Nle-cyclo(-Asp-His-D-Nal 2-Arg-Trp-Lys)-OH]	24	–	–	–
181	agonist	4420	antagonist	2	55	191	antagonist	186	1	–	CC(=O)N[C@H]1CC(=O)NCCCC[C@@H](C(=O)O)NC(=O)[C@H](Cc2c[nH]c3ccccc23)NC(=O)[C@H](CCCNC(=N)N)NC(=O)[C@@H](Cc2ccc3ccccc3c2)NC(=O)[C@H](Cc2c[nH]cn2)NC1=O [Example 14, Ac-cyclo(-Asp-His-D-Nal 2-Arg-Trp-Lys)-OH]	16	–	–	–
143	partial agonist	2150	antagonist	2	6	89	antagonist	10	–	–	CC(=O)N[C@H]1CC(=O)NCCCC[C@@H](C(=O)O)NC(=O)[C@H](Cc2ccc3ccccc3c2)NC(=O)[C@H](CCCNC(=N)N)NC(=O)[C@@H](Cc2ccc3ccccc3c2)NC(=O)[C@H](Cc2c[nH]cn2)NC1=O [Example 15, Ac-cyclo(-Asp-His-D-Nal 2-Arg-Nal 2-Lys)-OH] (Ac-DH[d2Nal]R[2Nal]K-OH; lactam 1-6)	32	–	–	–
